Source: article PMC9607266, “Drug–Drug Interaction Study to Evaluate the Pharmacokinetics, Safety, and Tolerability of Ipatasertib in Combination with Darolutamide in Patients with Advanced Prostate Cancer” (Pharmaceutics, 2022)
Like-named read-outs stand apart in the source and are kept apart here. Blank lines part the entries; values can stand above or below the molecule they belong to.

Columns and labels:
[1] = cited from earlier work
[2] = Phase Ib DDI study: safety and tolerability (adverse events, ECG); type: in vivo, human
From the text: (§1) Figure 1 presents an overview of the study design.
The primary objectives of the study were to characterize the effect of darolutamide on the PK of ipatasertib and its M1 (G-037720) metabolite when administered alone versus in combination with darolutamide and to evaluate the safety and tolerability of the ipatasertib–darolutamide combination. The PK endpoints of the study were to evaluate the plasma PK parameters of ipatasertib and its M1 metabolite and evaluate the PK of darolutamide and its metabolite keto-darolutamide at a steady state of the combination treatment and compare this to historical data. Medications known to impact the PK of ipatasertib or darolutamide (both CY3PA4 substrates) were refrained from being administered during the study conducted and accordingly not co-administered. The safety endpoints of the study were to evaluate the incidences, nature, and severity of AEs and laboratory abnormalities, changes in vital signs, exposure to the study treatment, and to evaluate the changes in ECG parameters with particular focus on the QT interval corrected through the use of Fridericia’s formula (QTcF). The study achieved the first patient first visit on 21 December 2020, and the cut-off date for primary PK and safety analysis presented within this manuscript was 31 August 2021.
The safety and tolerability assessments consisted of monitoring and recording AEs, including SAEs and AEs of special interest, clinical laboratory assessments, vital signs, a 12 lead ECG, and physical examination. The AEs were recorded from the first admission until the discontinuation of visits. The AE severity was graded from Grade 1 to Grade 5 as per the National Cancer Institute Common Terminology Criteria for Adverse Events version 5.0. The relationship between the AEs and the study drug was indicated as related or not related. The AE terms reported were coded using the standard Medical Dictionary for Regulatory Activities version 24.0’s preferred terms. In order to manage any drug-related toxicities, ipatasertib and darolutamide modifications were specified as follows: An ipatasertib dose could be reduced in decrements of 100 mg up to 200 mg (can be reduced to two dose levels) beyond which the patient must discontinue ipatasertib but may continue treatment with darolutamide. In the case of darolutamide, the dose could be reduced from 600 mg BID to 300 mg BID until symptoms improve. Treatment may then be resumed at a dose of 600 mg, twice daily. A dose reduction below 300 mg BID for darolutamide was not recommended.

[3] = Phase Ib DDI study: plasma PK of ipatasertib and M1 after ipatasertib 400 mg QD alone and with darolutamide 600 mg BID; type: in vivo; conditions: male, human, oral
Experimental: as §1
Stable labeled internal standards were used for both analytes.
Only median, min, and max were evaluated for Tmax.
Pharmacokinetic parameters (area under the curve (AUC0–tau) and Cmax,ss) were compared between Day 10 of Cycle 1 (ipatasertib alone, as the reference treatment) and Day 28 of Cycle 1 (combination of ipatasertib and darolutamide, as the test treatment) using SAS Version 9.4 by calculating geometric mean ratios and corresponding 90% confidence intervals (CIs) to evaluate the effect of darolutamide on the PK of ipatasertib and M1. A linear mixed model with a fixed effect for treatment and a random effect for patients was used on the natural log-transformed pharmacokinetic parameters. Point estimates for the means and point estimates and corresponding 90% confidence intervals (CIs) for the differences in means between the two treatments (reference and test treatments) were obtained from the linear mixed effects model and then exponentiated to obtain geometric means, geometric mean ratios, and respective 90% CIs on the original scale.

CYP3A4 [4] = conditions: cited from earlier work
CYP3A4 [5] = conditions: in vitro studies; cited from earlier work
[6] = cited from earlier work; remark: listed apart in the source
CYP3A4 [7] = tested on: CYP3A4; design: method as in PMID 35428895; conditions: PBPK simulations, ipatasertib 400 mg QD; cited from earlier work
[8] = design: method as in PMID 27872130; conditions: cited from earlier work
[9] = cited from earlier work; remark: listed apart in the source
[10] = compared with enzalutamide and apalutamide; cited from earlier work
[11] = Phase Ib DDI study: plasma PK of darolutamide and keto-darolutamide at steady state in combination with ipatasertib; conditions: human
Experimental: This was an open-label, multicenter, Phase Ib study designed to assess the safety, tolerability, and the drug–drug interaction of the combined administration of 400 mg QD oral ipatasertib and 600 mg BID oral darolutamide. […] For this study, no prospective calculations of the statistical power were made; the sample size selected was based on a typical sample size used for DDI studies. […] Figure 1 presents an overview of the study design.
Plasma concentrations of ipatasertib and its metabolite M1 were determined using a previously reported, validated liquid chromatography–tandem mass spectrometry assay (LC-MS/MS). The lower and upper limit of the quantitation for ipatasertib and M1 was 0.500 ng/mL and 400 ng/mL, respectively. Stable labeled internal standards were used for both analytes. Plasma concentrations of darolutamide and keto-darolutamide were determined by a validated bioanalytical assay using supported liquid extraction and LC-MS/MS detection by Labcorp Early Drug Development Laboratories Inc. (Madison, WI, USA). […] The diastereomers of darolutamide, (S, R)-darolutamide, and (S, S)-darolutamide, were quantified as one entity from a single chromatographic peak. The MS/MS transitions monitored for detection were m/z 399.2 to 178.1 for darolutamide, m/z 397.1 to 136.0 for keto-darolutamide, and 478.2 to 221.0 for the internal standard apalutamide. […]

[12] = itraconazole, strong CYP3A4 and P-gp inhibitor, 100 mg ipatasertib
[13] = single-agent darolutamide from the literature, geometric mean (%CV)

SMILES: CC(C)NC[C@@H](C(=O)N1CCN(c2ncnc3c2[C@H](C)C[C@H]3O)CC1)c1ccc(Cl)cc1 [Ipatasertib]
- increase in exposures when combined with abiraterone ([1]; dedicated drug–drug interaction study): approximately 1.5 fold
- decrease in ipatasertib exposure when combined with enzalutamide ([1]; enzalutamide, strong CYP3A4 inducer): approximately 50%
- increase in AUC0–∞ when combined with itraconazole [1, 12]: 5.45 fold
- increase in Cmax when combined with itraconazole [1, 12]: 2.26 fold
- Total number of deaths ([2]; N = 14): 0
- patients with at least one AE leading to discontinuation of darolutamide ([2]; male, human, in vivo): 0 n (%)
- patients with at least one AE leading to discontinuation of ipatasertib ([2]; male, human, in vivo): 0 n (%)
- patients with at least one AE leading to dose interruption of darolutamide ([2]; male, human, in vivo): 0 n (%)
- patients with at least one AE leading to dose interruption of ipatasertib ([2]; male, human, in vivo): 0 n (%)
- patients with at least one AE leading to dose reduction of darolutamide ([2]; male, human, in vivo): 0 n (%)
- patients with at least one AE leading to dose reduction of ipatasertib ([2]; male, human, in vivo): 0 n (%)
- patients with at least one AE related to any treatment ([2]; male, human, in vivo): 1 (7.1) n (%)
- patients with at least one AE related to darolutamide only ([2]; male, human, in vivo): 0 n (%)
- patients with at least one AE related to ipatasertib only ([2]; male, human, in vivo): 1 (7.1) n (%)
- patients with at least one Grade 5 AE ([2]; male, human, in vivo): 0 n (%)
- patients with at least one Grade ≥ 3 AE ([2]; male, human, in vivo): 0 n (%)
- patients with at least one Serious AE ([2]; male, human, in vivo): 0 n (%)
- patients with at least one: Any treatment discontinuation ([2]; male, human, in vivo): 0 n (%)
- patients with diarrhea of Grade 1 ([2]; male, human, in vivo): 7.1%
- AUC ([3]; 400 mg, Reference = ipatasertib only, n = 13, linear mixed model, read-out: AUC0–tau,ss, Reference Geometric Mean): 2610 ng·h/mL
- Cmax ([3]; 400 mg, Reference = ipatasertib only, n = 13, linear mixed model, read-out: Cmax,ss, Reference Geometric Mean): 452 ng/mL
- Cmax ([3]; 400 mg, ipatasertib 400 mg QD alone, Cycle 1 Day 10, n = 14, geometric mean (%CV), read-out: Cmax,ss): 462 ng/mL
- AUC ([3]; 400 mg, ipatasertib 400 mg QD alone, Cycle 1 Day 10, n = 14, geometric mean (%CV), tau = 24 h, mCRPC patients, read-out: AUC0–tau,ss): 2660 ng·h/mL
- AUC ([3]; Test = ipatasertib with darolutamide, n = 13, linear mixed model, read-out: AUC0–tau,ss, Test Geometric Mean): 2400 ng·h/mL
- Cmax ([3]; Test = ipatasertib with darolutamide, n = 13, linear mixed model, read-out: Cmax,ss, Test Geometric Mean): 355 ng/mL
- AUC(0-t) ([3]; ipatasertib 400 mg QD alone, Cycle 1 Day 10, n = 14, geometric mean (%CV)): 2670 ng·h/mL
- Tmax ([3]; ipatasertib 400 mg QD alone, Cycle 1 Day 10, n = 14, median (min, max)): 1.04 h
- AUC(0-t) ([3]; ipatasertib 400 mg QD with darolutamide 600 mg BID, Cycle 1 Day 28, n = 13, geometric mean (%CV)): 2400 ng·h/mL
- Cmax ([3]; ipatasertib 400 mg QD with darolutamide 600 mg BID, Cycle 1 Day 28, n = 13, geometric mean (%CV), read-out: Cmax,ss): 355 ng/mL
- AUC ([3]; ipatasertib 400 mg QD with darolutamide 600 mg BID, Cycle 1 Day 28, n = 13, geometric mean (%CV), tau = 24 h, read-out: AUC0–tau,ss): 2400 ng·h/mL
- Tmax ([3]; ipatasertib 400 mg QD with darolutamide 600 mg BID, Cycle 1 Day 28, n = 13, median (min, max)): 2 h
- increase in midazolam AUC0–∞ exposures (CYP3A4 [4]; ipatasertib at 600 mg QD): 2.22 fold
- CYP3A4 inhibition in vitro (CYP3A4 [5]): time-dependent inhibitor of CYP3A4
- time to steady-state ([6]; 400 mg QD dose): ≤ 7 days
- median time to maximum concentration (Tmax) ([6]; across 25–800 mg doses in patients with cancer): 0.5 to 3 h
- exposures following a high-fat meal versus fasted conditions [6]: comparable
- median half-life (t1/2) ([6]; oral doses in the range of 200–800 mg, range 27.8–66.9 h): 45.0 h
- expected increase in midazolam exposure (AUC0–∞) (CYP3A4 [7]): approximately 1.69 fold
- human plasma protein binding [8]: low

- Tmax ([11]; male, plasma, oral): 4.23 h
SMILES: CC(O)c1cc(C(=O)N[C@@H](C)Cn2ccc(-c3ccc(C#N)c(Cl)c3)n2)[nH]n1 (stereo partly drawn) [Darolutamide]
- time to steady state ([9]; 600 mg BID): 2 to 5 days
- increase in bioavailability when administered with food [9]: 2.0- to 2.5 fold
- effective t1/2 ([9]; in patients): approximately 20 h
- time at which Cmax is reached ([9]; single 600 mg oral dose): approximately 4 h
- AUC0–t,ss [9, 13]: 52.82 (33.9) h·µg/mL
- Cmax,ss [9, 13]: 4.79 (30.9) µg/mL
- AUC0–12 h,ss ([9]; single-agent darolutamide): 52820 ng·h/mL
- increase in AUC0–∞ when combined with itraconazole ([1]; darolutamide with itraconazole): 1.7 fold
- increase in Cmax when combined with itraconazole ([1]; darolutamide with itraconazole): 1.4 fold
- reduction of midazolam exposures (CYP3A4 [4]; concomitant administration of darolutamide and midazolam): ~ 29%
- penetration of the blood–brain barrier [10]: lower penetration of the blood–brain barrier

- Tmax,ss ([11]; in vivo): 4.13 (1.00, 8.25) h
SMILES: CC(=O)c1cc(C(=O)N[C@@H](C)Cn2ccc(-c3ccc(C#N)c(Cl)c3)n2)[nH]n1 [Keto-darolutamide, keto-darolutamide]
- AUC0–12 h,ss ([9]; human, in vivo): 82800 ng·h/mL
- AUC0–t,ss ([9]; human, in vivo): 82.8 (39.5) h·µg/mL
- Cmax,ss ([9]; human, in vivo): 9.4 (35.4) µg/mL
- effective t1/2 ([9]; human, in vivo): approximately 20 h

SMILES: CNC(=O)c1ccc(N2C(=S)N(c3ccc(C#N)c(C(F)(F)F)c3)C(=O)C2(C)C)cc1F [enzalutamide]
- reduction of midazolam exposures (CYP3A4 [4]; midazolam in combination with enzalutamide, strong CYP3A4 inducer): approximately 85%
